Measurements as given in patent US20110207689A1, “THE TREATMENT OF HEARING LOSS” (Auckland UniServices Limited, priority 2008, published 2011).

Legend:
Assay type in all cases: in vivo, Wistar rats
[1] = test system: rats exposed to 8-12 kHz band noise for 24 hours at 110 dB SPL; experiment: ABR threshold recovery after prolonged (24 hours) noise exposure, systemic ADAC (Experiment 1); conditions: for recovery of ABR thresholds: 24 h noise 110 dB SPL
Procedure: In Experiments 1 and 2, Wistar rats were exposed to noise (8-12 kHz, 110 dB SPL for 2-24 hours). ADAC was then administered to the Wistar rats at 100 μg/kg/day. The ADAC was either administered as a single injection 6 hours after noise exposure, or as a single injection 24 hours after noise exposure, or as multiple injections, with the first injection of the multiple injections being administered 6 hours after noise exposure.
Hearing thresholds were assessed using auditory brainstem responses (ABRs) and the cellular damage was evaluated by quantitative histology (hair cell loss). ABR represents the activity of the auditory nerve and the central auditory pathways (brainstem/mid-brain regions) responding to the sound (clicks or pure tones). Nitrotyrosine marker was used for the immunohistochemical assessment of free radical damage.
Adenosine amine congener (ADAC) was obtained from Dr Ken Jacobson (NIH, Bethesda, USA). ADAC ([…]) was dissolved first in 100 μL of 1N HCl and then in 50 ml of 0.1 M PBS (pH 7.4), making a 50 μg/mL stock solution. This solution was aliquoted at 1 mL in eppendorf tubes, and stored at −20° C. for later use. When required, the ADAC aliquots were heated in a 37° C. water bath for 30 minutes before administration. ADAC injection dose was […] given intraperitoneally, 200 μl/100 g body weight.
The rats were exposed to 8-12 kHz band noise presented for 24 hours at 110 dB SPL. This was done in a custom built acoustic chamber (Shelburg Acoustics, Sydney, Australia) with internal speakers and external controls (sound generator and frequency selector). Sound intensity inside the chamber was tested using a calibrated Rion NL-40 sound level meter to ensure minimal deviations of sound intensity (110±1 dB SPL). Up to 4 rats were placed in the chamber in a standard rat cage. They were introduced to the sound chamber at 1 hour intervals so that the timing of subsequent ABRs could be kept consistent for all rats.
ABR represents the activity of the auditory nerve and the central auditory pathways (brainstem/mid-brain regions) responding to the sound (clicks or pure tones). ABRs were obtained by placing fine platinum electrodes subdermally at the mastoid region of the ear of interest (active electrode), scalp vertex (reference) and mastoid region of the opposite ear (ground electrode). A series of auditory clicks or pure tones (4-28 kHz) presented at varying intensity and thresholds generate electrical activity reflecting differing levels of auditory processing. The sound threshold of the ABR complex (waves I-IV) were determined by progressively attenuating the sound intensity until the waveform can no longer be observed.
The acoustic stimuli for ABR were produced and the responses recorded using a Tucker-Davis Technologies auditory physiology workstation (Alachua, Fla., USA).
All ABR measurements were performed in a sound attenuator chamber (Shelburg Acoustics, Sydney, Australia). Rats were anaesthetised with the mixture of Ketamine (75 mg/kg) and Xylazine (10 mg/kg) intraperitoneally, and then placed onto a heating pad, to maintain body temperature at 37° C. ABR potentials were evoked with digitally produced 5 ms tone pips (0.5 ms rise-fall time) at frequencies between 4 and 28 kHz in half-octave steps. Sound pressure level (SPL) was raised in 5 dB steps starting from 10 dB below threshold level to 90 dB SPL. Responses were averaged at each sound level (1024 repeats with stimulus polarity alternated), and response waveforms were discarded when peak-to-peak amplitude exceeded 15 μV. The ABR threshold was defined as the lowest intensity (to the nearest 5 dB) at which a response could be visually detected above the noise floor.
ABR thresholds were measured before and after noise exposure, and after ADAC/vehicle treatment. Post-noise ABR recordings were obtained 1 hour before the rats received their first ADAC or vehicle injection. […]

[2] = test system: organ of Corti hair cells; experiment: Hair cell loss, phalloidin-stained organ of Corti after 24 hours noise (Experiment 1); conditions: basal turn, noise 8-12 kHz 110 dB SPL 24 hours, versus vehicle
From the text: After the last ABR measurement, rats were killed by Pentobarbitone overdose and cochleae removed for histological analysis. The isolated cochleae were kept in 4% Paraformaldehyde overnight, until further processing (decapsulation or decalcification).
(§1) After the overnight fixation, the cochlea was decapsulated in 0.1 M PBS, to isolate the organ of Corti. The organ of Corti was removed with fine forceps, and separated into the apical, middle and basal turns. Wholemount tissues of the organ of Corti were placed into a 24-well plate, and then permeabilised with 1% Trition-X in 0.1 M PBS for 1 hour. 1% Alexa Fluor 488 phalloidin (Invitrogen) dissolved in 0.1 M PBS was used to stain the hair cells and their stereocilia. Tissues were incubated in phalloidin for 40 minutes, washed with 0.1 M PBS 3×10 min and mounted onto glass slides using CitiFlour. The slides were visualised using a Zeiss epi-fluorescence microscope and processed with Axiovision v3.1 software, using dark field filter and 100×, 200×, and 400× magnification. Non-overlapping images were taken for the entire length of the cochlea, and the number of missing outer hair cells was counted for each turn and presented as a percentage of total number of hair cells.

[3] = Body weight, temperature and behaviour in animals treated with ADAC (Experiment 2)
Procedure: A. Body weight was measured immediately before noise exposure and 14 days after noise exposure. B. Rectal temperature (° C.) was measured before ADAC administration and 30 and 60 minutes after the injection. Number of animals: n=8 per group.

[4] = test system: organ of Corti hair cells; experiment: Hair cell counts after acute (2 hours) noise exposure (Experiment 2); conditions: 2 h noise 110 dB SPL; five ADAC injections; vehicle 23-34%
Procedure: as §1
The percentage of total number of hair cells was determined as for Experiment 1.
The outer and inner hair cells were counted in Alexa 488 phalloidin-labelled surface preparation of the organ of Corti in the basal, middle and apical turns and the percentage of missing hair cells was calculated for each turn.

## NCCNC(=O)Cc1ccc(NC(=O)Cc2ccc(Nc3ncnc4c3ncn4[C@@H]3O[C@H](CO)[C@@H](O)[C@H]3O)cc2)cc1 [ADAC, adenosine amine congener]
[1]; ADAC administration 24 hours after noise exposure, FIG. 3
  effect on threshold recovery: less pronounced
[1]; chronic treatment (5 days, five injections every 24 hours commencing 6 hours post-noise), 100 μg/kg i.p.
  recovery of ABR thresholds at all pure tone frequencies: 22-28 dB
[1]; group that received multiple injections of ADAC (FIGS. 4 and 5), follows sentence on auditory clicks
  highest recovery of ABR thresholds (mean ± SEM): 29 dB
[1]; prolonged ADAC treatment (5 injections), FIG. 4
  best recovery of hearing thresholds: < 25 dB
[1]; single ADAC injection 24 hours after noise exposure (FIGS. 3 and 5), follows sentence on auditory clicks
  lowest recovery of ABR thresholds (mean ± SEM): 8±2 dB
[1]; single injection ADAC 100 μg/kg i.p. 24 hours after noise exposure
  recovery of ABR thresholds: 5-12 dB
[1]; single injection ADAC 100 μg/kg i.p., early treatment 6 hours after noise
  recovery of ABR thresholds: 17-26 dB
[1]; single injection of ADAC 6 hours after noise exposure, pure tones and auditory clicks, p<0.05, p<0.01
  threshold recovery versus control group: statistically significant difference between the groups in the level of recovery
[2]
  hair cell morphology, surface preparation of the organ of Corti: well preserved hair cell morphology
[3]; ADAC 100 μg/kg
  overt behavioural changes: did not induce overt behavioural changes
[3]; ADAC 100 μg/kg, before noise exposure and 14 days after
  body weight: did not induce overt behavioural changes in rats or alterations in body weight
[3]; ADAC treatment
  signs of systemic toxicity (loss of body weight, feeding or drinking behaviour, hypothermia): No signs of systemic toxicity
[3]; before and 30 and 60 minutes after ADAC 100 μg/kg injection
  body temperature (rectal): remained stable
[4]
  hair cell loss, basal cochlear turn (average): 9%
  hair cell loss, middle cochlear turn (average): 7%
